From the supplement of paper PMC13380429

Key:
Settings in all cases: 72 h
HepG2 [1] = assay: drug sensitivity score (DSS) for viability; higher = more toxic; extreme values may be limits of the assay
Caco-2 [2] = assay: as above
Calu-3 [3] = assay: as above
U2OS [4] = assay: as above
HepG2 [5] = assay: cell viability relative to DMSO; higher = less toxic
Caco-2 [6] = assay: as above
Calu-3 [7] = assay: as above
U2OS [8] = assay: as above
HepG2 [9] = assay: relative viability EC50 (midpoint between 100% and the lowest measured viability); higher = less toxic
Caco-2 [10] = assay: as above
Calu-3 [11] = assay: as above
U2OS [12] = assay: as above
Vero E6 [13] = assay: drug sensitivity score (DSS) for viability; higher = more toxic; extreme values may be limits of the assay
Vero E6 [14] = assay: cell viability relative to DMSO; higher = less toxic
Vero E6 [15] = assay: relative viability EC50 (midpoint between 100% and the lowest measured viability); higher = less toxic

SMILES	drug sensitivity score (HepG2 [1])	drug sensitivity score (Caco-2 [2])	drug sensitivity score (Calu-3 [3])	drug sensitivity score (U2OS [4])	cell viability (HepG2 [5]; 1 nM)	cell viability (HepG2 [5]; 10 nM)	cell viability (HepG2 [5]; 100 nM)	cell viability (HepG2 [5]; 1000 nM)	cell viability (HepG2 [5]; 10000 nM)	cell viability (Caco-2 [6]; 1 nM)	cell viability (Caco-2 [6]; 10 nM)	cell viability (Caco-2 [6]; 100 nM)	cell viability (Caco-2 [6]; 1000 nM)	cell viability (Caco-2 [6]; 10000 nM)	cell viability (Calu-3 [7]; 1 nM)	cell viability (Calu-3 [7]; 10 nM)	cell viability (Calu-3 [7]; 100 nM)	cell viability (Calu-3 [7]; 1000 nM)	cell viability (Calu-3 [7]; 10000 nM)	cell viability (U2OS [8]; 1 nM)	cell viability (U2OS [8]; 10 nM)	cell viability (U2OS [8]; 100 nM)	cell viability (U2OS [8]; 1000 nM)	cell viability (U2OS [8]; 10000 nM)	relative viability EC50 (HepG2 [9])	relative viability EC50 (Caco-2 [10])	relative viability EC50 (Calu-3 [11])	relative viability EC50 (U2OS [12])	drug sensitivity score (Vero E6 [13])	cell viability (Vero E6 [14]; 1 nM)	cell viability (Vero E6 [14]; 10 nM)	cell viability (Vero E6 [14]; 100 nM)	cell viability (Vero E6 [14]; 1000 nM)	cell viability (Vero E6 [14]; 10000 nM)	relative viability EC50 (Vero E6 [15])
CC1(C)CCC[C@]2(C)[C@H]3CC(=O)O[C@]3(C)CC[C@@H]12 [Sclareolide (Norambreinolide)]	0	0	0	0	106%	99.1%	108%	101%	100%	95.7%	96.6%	92.7%	102%	88.5%	100%	104%	99.4%	107%	87.6%	100%	100%	97%	99.5%	99.5%	> 10 µM	> 10 µM	> 10 µM	> 10 µM							
NC(=O)N1c2ccccc2CC(O)c2ccccc21 (stereo not given) [licarbazepine]	0	0	0	0	96.3%	96.4%	93.5%	108%	99%	98.3%	99.5%	97.8%	100%	91.5%	98.3%	99.9%	96.3%	105%	92.1%	108%	97.5%	98.8%	101%	102%	> 10 µM	> 10 µM	> 10 µM	> 10 µM	0	101%	102%	104%	97.6%	97.8%	> 10 µM
CCOC(=O)[C@H](CCc1ccccc1)N[C@@H](C)C(=O)N1Cc2ccccc2C[C@H]1C(=O)O [quinapril]	0	0	0	0	106%	98.9%	110%	93.6%	94.7%	95.7%	99.6%	92.1%	96.3%	88.5%	95.2%	102%	103%	97%	96.5%	98.1%	100%	95.1%	101%	93.9%	> 10 µM	> 10 µM	> 10 µM	> 10 µM	0	104%	97.9%	102%	90.4%	97.8%	> 10 µM
CCC[C@@H]1CC(=O)N([C@@H](CC)C(N)=O)C1 [Brivaracetam]	0	0	0	0	101%	96.2%	101%	97.9%	114%	89.1%	94.5%	93.8%	102%	98.8%	100%	103%	92.7%	100%	97.2%	102%	98%	102%	96.2%	99.6%	> 10 µM	> 10 µM	> 10 µM	> 10 µM	0	89.6%	96.2%	88.3%	97.5%	107%	> 10 µM
CC1(C)C(=O)N(c2ccc(C#N)c(C(F)(F)F)c2)C(=O)N1CCCCO	0	0.4	0	0	98.8%	93.9%	103%	91.1%	91.6%	104%	94.8%	90.6%	90.7%	89.4%	104%	114%	96%	97.6%	91.9%	99.9%	102%	96.5%	97.6%	98.3%	> 10 µM	> 10 µM	> 10 µM	> 10 µM	0	95.6%	103%	100%	103%	99.2%	> 10 µM
O=C1NC(=O)C(c2ccccc2)(c2ccccc2)N1 [phenytoin]	0	0	0.3	0	108%	94.8%	99.5%	95.8%	101%	97.9%	95.9%	88.6%	101%	99.3%	102%	96.1%	97.8%	93.5%	84.9%	97.7%	104%	96%	101%	98.9%	> 10 µM	> 10 µM	> 10 µM	> 10 µM	0	96%	103%	100%	98.4%	100%	> 10 µM
Oc1ccc2[nH]cc(C3=CCNCC3)c2n1	0	0	0	0	107%	106%	97.6%	89.1%	100%	79.9%	95.6%	97%	98.1%	100%	100%	92.6%	105%	104%	102%	94.8%	100%	97.1%	106%	105%	> 10 µM	> 10 µM	> 10 µM	> 10 µM	0	105%	91.2%	99.4%	97%	102%	> 10 µM
Oc1cc2c(c(Cl)c1O)CCNCC2c1ccccc1 (stereo not given)	0.1	0	0	0	93.2%	100%	100%	103%	86.8%	99.2%	94.9%	85.4%	90.9%	95.5%	95.1%	106%	97.7%	106%	91.1%	100%	97%	102%	97.8%	104%	> 10 µM	> 10 µM	> 10 µM	> 10 µM	0	104%	106%	103%	104%	98.6%	> 10 µM
Cn1c(CNc2ccc(C(=N)N)cc2)nc2cc(C(=O)N(CCC(=O)O)c3ccccn3)ccc21 [dabigatran]	0	0	0	0	103%	95.8%	104%	97.8%	91.7%	109%	97.1%	101%	94%	95.5%	114%	99.6%	90.1%	93.7%	92.8%	104%	99.3%	101%	97.1%	98.1%	> 10 µM	> 10 µM	> 10 µM	> 10 µM	0	96.9%	96.4%	99.1%	101%	99%	> 10 µM
CN(C)CCCO[C@@H]1[C@H]2OC(C)(C)O[C@H]2O[C@@H]1[C@H](O)CO [amiprilose]	0.2	0	0	0	91.3%	102%	97.3%	99.6%	85.8%	107%	86.8%	101%	95.1%	97.3%	98.7%	102%	98%	101%	100%	102%	99.8%	100%	103%	101%	> 10 µM	> 10 µM	> 10 µM	> 10 µM							
CC#C[C@]1(O)CC[C@H]2[C@@H]3CCC4=CC(=O)CCC4=C3[C@@H](c3ccc(N(C)C)cc3)C[C@@]21C [mifepristone]	0	1.2	0	0	93.6%	92.6%	102%	90.3%	99%	88.8%	93.4%	94.1%	100%	72%	96.2%	103%	88.7%	96.3%	109%	100%	100%	100%	104%	91.8%	> 10 µM		> 10 µM	> 10 µM	0	98%	101%	98.4%	96.8%	97.6%	> 10 µM
CS(=O)(=O)c1ccc([C@@H](O)[C@@H](CO)NC(=O)C(Cl)Cl)cc1 [thiamphenicol]	1.4	0	0	0	101%	110%	93.4%	101%	67.3%	99.7%	89.8%	91.7%	93.4%	94.4%	106%	94.5%	102%	89.7%	97.8%	99.5%	97.5%	105%	96.6%	99%		> 10 µM	> 10 µM	> 10 µM	0	95.8%	99.3%	92.3%	96.8%	98.1%	> 10 µM
O=C1[C@@H]2[C@H]3CC[C@H](C3)[C@@H]2C(=O)N1C[C@@H]1CCCC[C@H]1CN1CCN(c2nsc3ccccc23)CC1 [lurasidone]	0.1	1.4	0	0	106%	106%	99.5%	96.9%	89.2%	94.5%	100%	99.6%	104%	64.5%	99.8%	97.8%	105%	94.7%	105%	104%	107%	95.9%	102%	88.4%	> 10 µM		> 10 µM	> 10 µM	0	104%	102%	103%	99.6%	97.2%	> 10 µM
O=C1CN(/N=C/c2ccc([N+](=O)[O-])o2)C(=O)N1 [nitrofurantoin]	1.5	0	0	0	98.4%	111%	113%	109%	60%	101%	101%	95.8%	89.9%	103%	106%	111%	97.6%	94.3%	102%	104%	97.9%	101%	101%	103%		> 10 µM	> 10 µM	> 10 µM	0	92.4%	95.1%	98.4%	96.7%	97.4%	> 10 µM
CCCC(=O)OCOC(=O)C1=C(C)NC(C)=C(C(=O)OC)C1c1cccc(Cl)c1Cl (stereo not given) [cleviprex]	0	0.1	0	0	97.9%	97.8%	110%	111%	99.8%	97.6%	109%	99.1%	102%	87%	101%	92%	105%	108%	118%	98.8%	104%	100%	107%	95.3%	> 10 µM	> 10 µM	> 10 µM	> 10 µM							
